Measured values published in BigSolDB 2.1.

O=P(O)(O)c1ccccc1
solubility (mole fraction)
Conditions | 288.15 K | 293.15 K | 298.15 K | 303.15 K | 308.15 K | 313.15 K | 318.15 K
in acetone | 0.136 | 0.155 | 0.174 | 0.197 | 0.22 | 0.245 | 0.277
in acetonitrile | 0.0136 | 0.0166 | 0.0194 | 0.0228 | 0.0275 | 0.0317 | 0.0365
in chloroform | 0.00104 | 0.00134 | 0.00164 | 0.00211 | 0.00257 | 0.0032 | 0.00393
in ethyl acetate | 0.00523 | 0.00634 | 0.00755 | 0.00896 | 0.0106 | 0.0127 | 0.0155
in n-propanol | 0.305 | 0.336 | 0.358 | 0.388 | 0.417 | 0.445 | 0.47
